Experiments:
Assay in all cases: relative viability (nuclei count vs DMSO), 5 days (fraction); higher = more cells survive
Imatinib + Palbociclib = compound: Cc1ccc(NC(=O)c2ccc(CN3CCN(C)CC3)cc2)cc1Nc1nccc(-c2cccnc2)n1 [Imatinib] + CC(=O)c1c(C)c2cnc(Nc3ccc(N4CCNCC4)cn3)nc2n(C2CCCC2)c1=O [Palbociclib] (partner 0.5 µM)
Summary of the method: (§1)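 Relative viability was taken as the ratio of nuclei in treated wells to nuclei in vehicle wells. Lung cancer cell lines in 1536-well plates received compounds by pin tool one day after seeding, either one drug alone or a fixed anchor-drug dose plus five library-drug doses (not always all listed) in √10 steps. Nuclei were counted on 4× images after 5 days of treatment, and values are medians of duplicate plates.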

Imatinib + OSI-027 = compound: Cc1ccc(NC(=O)c2ccc(CN3CCN(C)CC3)cc2)cc1Nc1nccc(-c2cccnc2)n1 [Imatinib] + COc1cccc2cc(-c3nc([C@H]4CC[C@H](C(=O)O)CC4)n4ncnc(N)c34)[nH]c12 [OSI-027] (partner 0.5 µM)
Summary of the method: as §1

Imatinib + AZD7762 = compound: Cc1ccc(NC(=O)c2ccc(CN3CCN(C)CC3)cc2)cc1Nc1nccc(-c2cccnc2)n1 [Imatinib] + NC(=O)Nc1cc(-c2cccc(F)c2)sc1C(=O)N[C@H]1CCCNC1 [AZD7762] (partner 0.2 µM)
Summary of the method: as §1

Imatinib + Dasatinib = compound: Cc1ccc(NC(=O)c2ccc(CN3CCN(C)CC3)cc2)cc1Nc1nccc(-c2cccnc2)n1 [Imatinib] + Cc1nc(Nc2ncc(C(=O)Nc3c(C)cccc3Cl)s2)cc(N2CCN(CCO)CC2)n1 [Dasatinib] (partner 0.075 µM)
Summary of the method: as §1

NCI-H1793
relative viability (Imatinib + Palbociclib; first compound 0.02 µM): 0.293
relative viability (Imatinib + Palbociclib; first compound 0.2 µM): 0.315
relative viability (Imatinib + Palbociclib; first compound 0.6325 µM): 0.291
relative viability (Imatinib + Palbociclib; first compound 2 µM): 0.307
relative viability (Imatinib + OSI-027; first compound 0.02 µM): 0.298
relative viability (Imatinib + OSI-027; first compound 0.2 µM): 0.263
relative viability (Imatinib + OSI-027; first compound 0.6325 µM): 0.249
relative viability (Imatinib + OSI-027; first compound 2 µM): 0.204
relative viability (Imatinib + AZD7762; first compound 0.02 µM): 0.463
relative viability (Imatinib + AZD7762; first compound 0.2 µM): 0.279
relative viability (Imatinib + AZD7762; first compound 0.6325 µM): 0.286
relative viability (Imatinib + AZD7762; first compound 2 µM): 0.197
relative viability (Imatinib + Dasatinib; first compound 0.02 µM): 0.421
relative viability (Imatinib + Dasatinib; first compound 0.2 µM): 0.388
relative viability (Imatinib + Dasatinib; first compound 0.6325 µM): 0.368
relative viability (Imatinib + Dasatinib; first compound 2 µM): 0.388

NCI-H1915
relative viability (Imatinib + Palbociclib; first compound 0.02 µM): 0.523
relative viability (Imatinib + Palbociclib; first compound 0.2 µM): 0.556
relative viability (Imatinib + Palbociclib; first compound 0.6325 µM): 0.456
relative viability (Imatinib + Palbociclib; first compound 2 µM): 0.518
relative viability (Imatinib + OSI-027; first compound 0.02 µM): 0.61
relative viability (Imatinib + OSI-027; first compound 0.2 µM): 0.67
relative viability (Imatinib + OSI-027; first compound 0.6325 µM): 0.6
relative viability (Imatinib + OSI-027; first compound 2 µM): 0.599
relative viability (Imatinib + AZD7762; first compound 0.02 µM): 0.705
relative viability (Imatinib + AZD7762; first compound 0.2 µM): 0.781
relative viability (Imatinib + AZD7762; first compound 0.6325 µM): 0.659
relative viability (Imatinib + AZD7762; first compound 2 µM): 0.665
relative viability (Imatinib + Dasatinib; first compound 0.02 µM): 0.298
relative viability (Imatinib + Dasatinib; first compound 0.2 µM): 0.368
relative viability (Imatinib + Dasatinib; first compound 0.6325 µM): 0.312
relative viability (Imatinib + Dasatinib; first compound 2 µM): 0.305

NCI-H1944
relative viability (Imatinib + Palbociclib; first compound 0.02 µM): 0.347
relative viability (Imatinib + Palbociclib; first compound 0.06325 µM): 0.306
relative viability (Imatinib + Palbociclib; first compound 0.2 µM): 0.373
relative viability (Imatinib + Palbociclib; first compound 0.6325 µM): 0.316
relative viability (Imatinib + Palbociclib; first compound 2 µM): 0.42
relative viability (Imatinib + OSI-027; first compound 0.02 µM): 0.423
relative viability (Imatinib + OSI-027; first compound 0.06325 µM): 0.267
relative viability (Imatinib + OSI-027; first compound 0.2 µM): 0.403
relative viability (Imatinib + OSI-027; first compound 0.6325 µM): 0.425
relative viability (Imatinib + OSI-027; first compound 2 µM): 0.381
relative viability (Imatinib + AZD7762; first compound 0.02 µM): 0.628
relative viability (Imatinib + AZD7762; first compound 0.06325 µM): 0.556
relative viability (Imatinib + AZD7762; first compound 0.2 µM): 0.452
relative viability (Imatinib + AZD7762; first compound 0.6325 µM): 0.37
relative viability (Imatinib + AZD7762; first compound 2 µM): 0.423
relative viability (Imatinib + Dasatinib; first compound 0.02 µM): 0.198
relative viability (Imatinib + Dasatinib; first compound 0.06325 µM): 0.208
relative viability (Imatinib + Dasatinib; first compound 0.2 µM): 0.2
relative viability (Imatinib + Dasatinib; first compound 0.6325 µM): 0.2
relative viability (Imatinib + Dasatinib; first compound 2 µM): 0.234

NCI-H1975
relative viability (Imatinib + Palbociclib; first compound 0.02 µM): 0.662
relative viability (Imatinib + Palbociclib; first compound 0.06325 µM): 0.49
relative viability (Imatinib + Palbociclib; first compound 0.2 µM): 0.566
relative viability (Imatinib + Palbociclib; first compound 0.6325 µM): 0.631
relative viability (Imatinib + Palbociclib; first compound 2 µM): 0.563
relative viability (Imatinib + OSI-027; first compound 0.02 µM): 0.843
relative viability (Imatinib + OSI-027; first compound 0.06325 µM): 0.772
relative viability (Imatinib + OSI-027; first compound 0.2 µM): 0.827
relative viability (Imatinib + OSI-027; first compound 0.6325 µM): 0.579
relative viability (Imatinib + OSI-027; first compound 2 µM): 0.549
relative viability (Imatinib + AZD7762; first compound 0.02 µM): 0.754
relative viability (Imatinib + AZD7762; first compound 0.06325 µM): 0.701
relative viability (Imatinib + AZD7762; first compound 0.2 µM): 0.646
relative viability (Imatinib + AZD7762; first compound 0.6325 µM): 0.652
relative viability (Imatinib + AZD7762; first compound 2 µM): 0.646
relative viability (Imatinib + Dasatinib; first compound 0.02 µM): 0.426
relative viability (Imatinib + Dasatinib; first compound 0.06325 µM): 0.262
relative viability (Imatinib + Dasatinib; first compound 0.2 µM): 0.38
relative viability (Imatinib + Dasatinib; first compound 0.6325 µM): 0.371
relative viability (Imatinib + Dasatinib; first compound 2 µM): 0.259

NCI-H1993
relative viability (Imatinib + Palbociclib; first compound 0.02 µM): 0.684
relative viability (Imatinib + Palbociclib; first compound 0.06325 µM): 0.677
relative viability (Imatinib + Palbociclib; first compound 0.2 µM): 0.674
relative viability (Imatinib + Palbociclib; first compound 0.6325 µM): 0.723
relative viability (Imatinib + Palbociclib; first compound 2 µM): 0.699
relative viability (Imatinib + OSI-027; first compound 0.02 µM): 0.538
relative viability (Imatinib + OSI-027; first compound 0.06325 µM): 0.491
relative viability (Imatinib + OSI-027; first compound 0.2 µM): 0.617
relative viability (Imatinib + OSI-027; first compound 0.6325 µM): 0.543
relative viability (Imatinib + OSI-027; first compound 2 µM): 0.625
relative viability (Imatinib + AZD7762; first compound 0.02 µM): 1.08
relative viability (Imatinib + AZD7762; first compound 0.06325 µM): 0.728
relative viability (Imatinib + AZD7762; first compound 0.2 µM): 0.724
relative viability (Imatinib + AZD7762; first compound 0.6325 µM): 0.736
relative viability (Imatinib + AZD7762; first compound 2 µM): 0.701
relative viability (Imatinib + Dasatinib; first compound 0.02 µM): 0.678
relative viability (Imatinib + Dasatinib; first compound 0.06325 µM): 0.564
relative viability (Imatinib + Dasatinib; first compound 0.2 µM): 0.573
relative viability (Imatinib + Dasatinib; first compound 0.6325 µM): 0.522
relative viability (Imatinib + Dasatinib; first compound 2 µM): 0.521

NCI-H2085
relative viability (Imatinib + Palbociclib; first compound 0.02 µM): 0.447
relative viability (Imatinib + Palbociclib; first compound 0.06325 µM): 0.45
relative viability (Imatinib + Palbociclib; first compound 0.2 µM): 0.506
relative viability (Imatinib + Palbociclib; first compound 0.6325 µM): 0.481
relative viability (Imatinib + Palbociclib; first compound 2 µM): 0.47
relative viability (Imatinib + OSI-027; first compound 0.02 µM): 0.823
relative viability (Imatinib + OSI-027; first compound 0.06325 µM): 0.432
relative viability (Imatinib + OSI-027; first compound 0.2 µM): 0.717
relative viability (Imatinib + OSI-027; first compound 0.6325 µM): 0.724
relative viability (Imatinib + OSI-027; first compound 2 µM): 0.588
relative viability (Imatinib + AZD7762; first compound 0.02 µM): 1.03
relative viability (Imatinib + AZD7762; first compound 0.06325 µM): 0.87
relative viability (Imatinib + AZD7762; first compound 0.6325 µM): 1.14
relative viability (Imatinib + AZD7762; first compound 2 µM): 0.879
relative viability (Imatinib + Dasatinib; first compound 0.06325 µM): 0.18
relative viability (Imatinib + Dasatinib; first compound 0.2 µM): 0.248
relative viability (Imatinib + Dasatinib; first compound 0.6325 µM): 0.208
relative viability (Imatinib + Dasatinib; first compound 2 µM): 0.228

NCI-H2087
relative viability (Imatinib + Palbociclib; first compound 0.02 µM): 0.192
relative viability (Imatinib + Palbociclib; first compound 0.2 µM): 0.188
relative viability (Imatinib + Palbociclib; first compound 0.6325 µM): 0.243
relative viability (Imatinib + OSI-027; first compound 0.02 µM): 0.601
relative viability (Imatinib + OSI-027; first compound 0.2 µM): 0.643
relative viability (Imatinib + OSI-027; first compound 0.6325 µM): 0.618
relative viability (Imatinib + OSI-027; first compound 2 µM): 0.572
relative viability (Imatinib + AZD7762; first compound 0.02 µM): 1.33
relative viability (Imatinib + AZD7762; first compound 0.2 µM): 1.58
relative viability (Imatinib + AZD7762; first compound 0.6325 µM): 1.35
relative viability (Imatinib + Dasatinib; first compound 0.02 µM): 0.817
relative viability (Imatinib + Dasatinib; first compound 0.2 µM): 0.949
relative viability (Imatinib + Dasatinib; first compound 0.6325 µM): 0.89

NCI-H2126
relative viability (Imatinib + Palbociclib; first compound 0.02 µM): 0.375
relative viability (Imatinib + Palbociclib; first compound 0.06325 µM): 0.352
relative viability (Imatinib + Palbociclib; first compound 0.2 µM): 0.37
relative viability (Imatinib + Palbociclib; first compound 0.6325 µM): 0.368
relative viability (Imatinib + Palbociclib; first compound 2 µM): 0.321
relative viability (Imatinib + OSI-027; first compound 0.02 µM): 0.851
relative viability (Imatinib + OSI-027; first compound 0.06325 µM): 0.68
relative viability (Imatinib + OSI-027; first compound 0.2 µM): 0.673
relative viability (Imatinib + OSI-027; first compound 0.6325 µM): 0.604
relative viability (Imatinib + OSI-027; first compound 2 µM): 0.678
relative viability (Imatinib + AZD7762; first compound 0.06325 µM): 0.668
relative viability (Imatinib + AZD7762; first compound 0.2 µM): 1.03
relative viability (Imatinib + AZD7762; first compound 0.6325 µM): 0.894
relative viability (Imatinib + AZD7762; first compound 2 µM): 0.981
relative viability (Imatinib + Dasatinib; first compound 0.02 µM): 0.705
relative viability (Imatinib + Dasatinib; first compound 0.2 µM): 0.537
relative viability (Imatinib + Dasatinib; first compound 0.6325 µM): 0.457
relative viability (Imatinib + Dasatinib; first compound 2 µM): 0.517

— the supplement of paper PMC10307832
